Measurements from PubChem BioAssay (NCI).
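In this assay, cells in 96-well plates receive the compound at five concentrations for 48 hours. Endpoints are linearly interpolated between the surrounding concentrations. TGI marks complete inhibition of growth.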

Experiments:
Experiment in all cases: NCI tumour cell line growth inhibition, 48 h
[1] = tested on: MOLT-4 leukemia
[2] = tested on: SR leukemia
[3] = tested on: HS 578T breast
[4] = tested on: OVCAR-5 ovarian
[5] = tested on: SW-620 colon
[6] = tested on: SK-MEL-5 melanoma
[7] = tested on: T-47D breast
[8] = tested on: SF-268 CNS
[9] = tested on: MCF7 breast
[10] = tested on: DMS 114 small cell lung
[11] = tested on: UACC-62 melanoma
[12] = tested on: UACC-257 melanoma
[13] = tested on: DU-145 prostate
[14] = tested on: OVCAR-3 ovarian
[15] = tested on: NCI-H23 lung
[16] = tested on: SF-295 CNS
[17] = tested on: NCI/ADR-RES ovarian
[18] = tested on: DLD-1 colon
[19] = tested on: KM20L2 colon
[20] = tested on: A498 renal
[21] = tested on: M19-MEL melanoma
[22] = tested on: COLO 205 colon
[23] = tested on: SK-MEL-2 melanoma
[24] = tested on: 786-0 renal
[25] = tested on: PC-3 prostate
[26] = tested on: RPMI-8226 leukemia
[27] = tested on: MALME-3M melanoma
[28] = tested on: IGROV1 ovarian
[29] = tested on: U251 CNS
[30] = tested on: HCT-116 colon
[31] = tested on: UO-31 renal
[32] = tested on: NCI-H226 lung
[33] = tested on: XF 498 CNS
[34] = tested on: RXF 393 renal
[35] = tested on: DMS 273 small cell lung
[36] = tested on: K-562 leukemia
[37] = tested on: NCI-H460 lung
[38] = tested on: ACHN renal
[39] = tested on: HOP-62 NSCLC
[40] = tested on: A549 NSCLC
[41] = tested on: MDA-MB-231 breast
[42] = tested on: HL-60(TB) leukemia
[43] = tested on: TK-10 renal
[44] = tested on: CAKI-1 renal
[45] = tested on: HCC-2998 colon
[46] = tested on: HT29 colon
[47] = tested on: SN12C renal
[48] = tested on: LOX IMVI melanoma
[49] = tested on: MDA-N
[50] = tested on: EKVX NSCLC
[51] = tested on: SF-539 CNS
[52] = tested on: M14 melanoma
[53] = tested on: OVCAR-4 ovarian
[54] = tested on: SNB-75 CNS
[55] = tested on: HOP-92 NSCLC
[56] = tested on: SNB-78 CNS
[57] = tested on: NCI-H522 lung
[58] = tested on: SNB-19 CNS
[59] = tested on: MDA-MB-435
[60] = tested on: RXF-631 renal
[61] = tested on: SK-MEL-28 melanoma
[62] = tested on: KM12 colon
[63] = tested on: HCT-15 colon
[64] = tested on: SK-OV-3 ovarian
[65] = tested on: LXFL 529 NSCLC
[66] = tested on: OVCAR-8 ovarian
[67] = tested on: CCRF-CEM leukemia
[68] = tested on: BT-549 breast

COC1=CC(=O)c2c(O)c3c(c(O)c2C1=O)C[C@](C)(O)C[C@@H]3O gave a TGI [1] of 31.4 µM, a TGI [2] of 12.1 µM and a TGI [3] of 81.4 µM. It also gave a TGI [4] of 27.8 µM, a TGI [5] of 14 µM and a TGI [6] of 2.64 µM. It also gave a TGI [7] of 22.3 µM, a TGI [8] of 32.8 µM and a TGI [9] of 16.3 µM. For the same molecule, the TGI [10] was 3.7 µM, the TGI [11] was 4.66 µM and the TGI [12] was 5.28 µM. For the same molecule, the TGI [13] was 16 µM, the TGI [14] was 5.29 µM and the TGI [15] was 6.7 µM. The TGI [16] was 11.5 µM, the TGI [17] was 29 µM and the TGI [18] was 17.2 µM. The TGI [19] was greater than 100 µM, the TGI [20] was 20.1 µM and the TGI [21] was 0.73 µM. It also gave a TGI [22] of 4.96 µM, a TGI [23] of 14.3 µM and a TGI [24] of 46.7 µM. For the same molecule, the TGI [25] was greater than 42.5 µM, the TGI [26] was 40.2 µM and the TGI [27] was 2.59 µM. The TGI [28] was 17.2 µM, the TGI [29] was 14.6 µM and the TGI [30] was 8.94 µM. The TGI [31] was 26.9 µM, the TGI [32] was 45.6 µM and the TGI [33] was 9.5 µM. It also gave a TGI [34] of 17.3 µM, a TGI [35] of 8.37 µM and a TGI [36] of 19.4 µM. It also gave a TGI [37] of 6.84 µM, a TGI [38] of 16 µM and a TGI [39] of 19.7 µM. The TGI [40] was 9.81 µM, the TGI [41] was 28.3 µM and the TGI [42] was 7.91 µM. The TGI [43] was 64.3 µM, the TGI [44] was 45.5 µM and the TGI [45] was 10.7 µM. For the same molecule, the TGI [46] was 8.05 µM, the TGI [47] was 13 µM and the TGI [48] was 10.1 µM. The TGI [49] was 3.35 µM, the TGI [50] was 23.6 µM and the TGI [51] was 9.89 µM. For the same molecule, the TGI [52] was 8.59 µM, the TGI [53] was 13.1 µM and the TGI [54] was 28 µM. For the same molecule, the TGI [55] was 22.6 µM, the TGI [56] was 16.3 µM and the TGI [57] was 12.4 µM. It also gave a TGI [58] of 14.7 µM, a TGI [59] of 3.34 µM and a TGI [60] of 11.2 µM. For the same molecule, the TGI [61] was 18.4 µM, the TGI [62] was 19 µM and the TGI [63] was 15.8 µM. It also gave a TGI [64] of 41.6 µM, a TGI [65] of 14.9 µM and a TGI [66] of 15.7 µM. The TGI [67] was 33.9 µM and the TGI [68] was 22.5 µM.
For Nc1ccc(C(=O)N/C(=C\c2cccc([N+](=O)[O-])c2)c2nc3ccc(Cl)cc3[nH]2)cc1, the TGI [1] was greater than 100 µM, the TGI [2] was greater than 100 µM and the TGI [4] was greater than 100 µM. For the same molecule, the TGI [5] was greater than 100 µM, the TGI [6] was greater than 100 µM and the TGI [8] was greater than 100 µM. For the same molecule, the TGI [10] was greater than 100 µM, the TGI [11] was greater than 100 µM and the TGI [14] was greater than 100 µM. It also gave a TGI [15] greater than 100 µM, a TGI [16] greater than 100 µM and a TGI [18] greater than 100 µM. The TGI [19] was greater than 100 µM, the TGI [21] was greater than 100 µM and the TGI [22] was greater than 100 µM. For the same molecule, the TGI [23] was greater than 100 µM, the TGI [24] was greater than 100 µM and the TGI [27] was greater than 100 µM. The TGI [28] was greater than 100 µM, the TGI [29] was greater than 100 µM and the TGI [31] was greater than 100 µM. For the same molecule, the TGI [33] was greater than 100 µM, the TGI [34] was greater than 100 µM and the TGI [36] was greater than 100 µM. The TGI [38] was greater than 100 µM, the TGI [40] was greater than 100 µM and the TGI [43] was greater than 100 µM. It also gave a TGI [44] greater than 100 µM, a TGI [45] greater than 100 µM and a TGI [46] greater than 100 µM. It also gave a TGI [47] greater than 100 µM, a TGI [50] greater than 100 µM and a TGI [51] greater than 100 µM. For the same molecule, the TGI [52] was greater than 100 µM, the TGI [53] was greater than 100 µM and the TGI [55] was 75.8 µM. For the same molecule, the TGI [56] was greater than 100 µM, the TGI [57] was greater than 100 µM and the TGI [58] was greater than 100 µM. For the same molecule, the TGI [60] was greater than 100 µM, the TGI [61] was greater than 100 µM and the TGI [62] was greater than 100 µM. For the same molecule, the TGI [63] was greater than 100 µM, the TGI [64] was greater than 100 µM and the TGI [65] was greater than 100 µM. The TGI [66] was greater than 100 µM and the TGI [67] was greater than 100 µM.
Work on Cc1ccc(NC(=O)CC2SC(N)=NC2=O)cc1C (stereo not given) yielded a TGI [1] greater than 100 µM, a TGI [2] greater than 100 µM and a TGI [4] greater than 100 µM. It also gave a TGI [5] greater than 100 µM, a TGI [8] greater than 100 µM and a TGI [11] greater than 100 µM. For the same molecule, the TGI [12] was greater than 100 µM, the TGI [14] was greater than 100 µM and the TGI [15] was greater than 100 µM. It also gave a TGI [16] greater than 100 µM, a TGI [18] greater than 100 µM and a TGI [19] greater than 100 µM. The TGI [22] was greater than 100 µM, the TGI [23] was greater than 100 µM and the TGI [24] was greater than 100 µM. For the same molecule, the TGI [26] was greater than 100 µM, the TGI [27] was greater than 100 µM and the TGI [28] was greater than 100 µM. The TGI [29] was greater than 100 µM, the TGI [30] was greater than 100 µM and the TGI [31] was greater than 100 µM. For the same molecule, the TGI [32] was greater than 100 µM, the TGI [33] was greater than 100 µM and the TGI [36] was greater than 100 µM. The TGI [37] was greater than 100 µM, the TGI [38] was greater than 100 µM and the TGI [39] was greater than 100 µM. It also gave a TGI [40] greater than 100 µM, a TGI [42] greater than 100 µM and a TGI [43] greater than 100 µM. The TGI [44] was greater than 100 µM, the TGI [45] was greater than 100 µM and the TGI [46] was greater than 100 µM. The TGI [47] was greater than 100 µM, the TGI [48] was greater than 100 µM and the TGI [51] was greater than 100 µM. For the same molecule, the TGI [52] was greater than 100 µM, the TGI [53] was greater than 100 µM and the TGI [54] was greater than 100 µM. The TGI [55] was greater than 100 µM, the TGI [56] was greater than 100 µM and the TGI [57] was greater than 100 µM. It also gave a TGI [58] greater than 100 µM, a TGI [60] greater than 100 µM and a TGI [61] greater than 100 µM. It also gave a TGI [62] greater than 100 µM, a TGI [63] greater than 100 µM and a TGI [64] greater than 100 µM. The TGI [65] was greater than 100 µM and the TGI [66] was greater than 100 µM.
